Series [1] deals with HeLa (cervix epithelioid carcinoma). Put plainly: Antiproliferative activity against HeLa (XTT colorimetric method). The series is classed as cell-based. The settings on record: Homo sapiens, 72 h treatment. The procedure:
(§1) The in vitro antiproliferative activity of MDS at 1 µM after 72 h treatments was evaluated by a colorimetric method against the human tumor cell lines HeLa (cervix epithelioid carcinoma) and MCF7 (breast adenocarcinoma). Compounds showing more than 40% inhibition at 1 µM in at least three independent assays were evaluated in a range of concentrations between 0.1 nM and 10 µM for the determination of half-maximal inhibitory concentrations (IC50) (Table 1). Paclitaxel, CA-4, and ABT-751 were used as references.
(§2) MCF7 (human breast carcinoma), SKOV-3 (human ovarian carcinoma), OVCAR-3 (human ovarian carcinoma), OVCAR-8 (human ovarian carcinoma), and HeLa (human cervical carcinoma) cell lines were cultured in Dulbecco’s Modified Eagle’s Medium (DMEM) (Gibco, Thermo Fischer Scientific) containing 10% (v/v) heat-inactivated fetal bovine serum (HIFBS) (Lonza-Cambrex, Karlskoga, Sweden), 2 mM L-glutamine (Lonza-Cambrex, Karlskoga, Sweden), 100 μg/mL streptomycin, and 100 IU/mL penicillin (Lonza-Cambrex) at 37 °C in humidified 95% air and 5% CO2. HT-29 (human colon carcinoma), IGROV-1 (human ovarian carcinoma), and A2780 (human ovarian carcinoma) cell lines were cultured in RPMI 1640 medium (Gibco, Thermo Fischer Scientific) supplemented with 10% HIFBS, 100 μg/mL streptomycin, and 100 IU/mL penicillin at 37 °C in humidified 95% air and 5% CO2 atmosphere. The presence of mycoplasma was routinely checked with MycoAlert kit (Lonza-Cambrex) and only mycoplasma-free cells were used in the experiments. Ovarian tumor cell lines were originally acquired from Dr Atanasio Pandiella from Centro de Investigación del Cáncer (CIC), Salamanca, Spain. HeLa, HT-29 and MCF7 tumor cell lines were provided by Dr Faustino Mollinedo from Centro de Investigaciones Biológicas Margarita Salas, Madrid, Spain.
(§3) MCF7, HeLa, and HT-29 cell proliferation, when treated with the corresponding compounds, were determined using the XTT (sodium 3’-[1(phenylaminocarbonyl)-3,4-tetrazolium]-bis(4-methoxy-6-nitro)-benzenesulfonic acid hydrate) cell proliferation kit (Roche Molecular Biochemicals, Mannheim, Germany). A freshly prepared mixture of XTT labeling reagent with 0.02% (v/v) PMS (N-methyl-dibenzopyrazine methyl sulfate) electron coupling reagent was added to cells (50 µL/well in 96-well plates, total volume of 160 µL/well). Cells were incubated under standard culture conditions for 4 h (MCF7 and HeLa) or 6 h (HT-29). The absorbance of the formazan product generated was measured at 450 nm using a multi-well plate reader. SKOV-3, OVCAR-3, OVCAR-8, IGROV-1, A-2780 cell proliferation, when treated with the corresponding compound, were determined using MTT (3-(4,5-dimethylthiazol-2-yl)-2,5-diphenyl-2H-tetrazolium bromide) (Sigma-Aldrich, St. Louis, MO, USA). MTT in Phosphate Buffer Saline (PBS) (5 mg/ml) was added to cells (110 µL/well in 24-well plates, total volume of 1110 µL/well). After 1 hour of incubation, the medium was aspirated, and formazan violet crystals were dissolved in dimethyl sulfoxide (DMSO) (500 µL/well). Absorbance was measured at 570 nm in a plate reader (Ultra Evolution, Tecan, Männedorf, Suiza). To determine cell viability, cells in exponential growth phase were seeded (100 µL/well in 96-well plates and 1000 µL/well in 24-well plates) with appropriate cell line concentration (1.5·10^4 cells/mL for MCF7 and HeLa, 3·10^4 cells/mL for HT-29, and 1·10^4 cells/mL for SKOV-3, OVCAR-3, OVCAR-8, IGROV-1, and A-2780) in complete RPMI 1640 or DMEM medium at 37°C and 5% CO2 atmosphere. After 24 h incubation, to allow cells to attach to the plates, all compounds were added at 1 µM concentration and the effect on the proliferation was evaluated 72 h post-treatment. Compounds showing antiproliferative effects at tested concentration were selected for IC50 calculation (50% inhibitory concentration with respect to the untreated controls) from 10^−5 to 10^−10 M concentration. Non-linear curves fitting the experimental data were carried out for each compound. […]
In general terms: Tetrazolium dyes change colour on reduction, which living cells bring about.

The subject of series [2] is MCF7 (breast adenocarcinoma). Put plainly: Antiproliferative activity against MCF7 (XTT colorimetric method). The series is classed as cell-based. The settings on record: Homo sapiens, 72 h treatment. As to the method: as §1, §2, §3
For series [3], the system named is tubulin (microtubular protein isolated from calf brain). Put plainly: Tubulin Polymerization Inhibition (TPI) assay, turbidity. Type of series: biochemical. The settings on record: 1.5 mg/mL microtubular protein. The procedure:
The effect of all the synthesized compounds on the in vitro tubulin polymerization was evaluated at 10 µM. All the compounds that inhibited polymerization more than 30% were also assayed at 20 µM. IC50 values were calculated for those compounds inhibiting tubulin polymerization by at least 50% at 20 µM (Table 1 and Supplemental Figure S2).
Microtubular protein was isolated from calf brain according to the modified Shelanski method by two cycles of temperature-dependent assembly/disassembly and stored at −80 °C. Before each use, protein concentration was determined by the Bradford method taking BSA as standard.
Tubulin polymerization was monitored using a Helios α spectrophotometer by measuring the increase in turbidity at 450 nm, caused by a shift from 4 °C to 37 °C, which allows the in vitro microtubular protein to depolymerize and polymerize, respectively. The assay was carried out in quartz cuvettes containing 1.5 mg/mL microtubular protein and the ligand (except for control cuvette with only DMSO at the same concentration) in a mixture of 0.1 M MES buffer, 1 mM EGTA, 1 mM MgCl2, 1 mM β-ME, and 1.5 mM GTP at pH 6.7 (final volume 500 µL). Cuvettes were preincubated at 20 °C for 30 min, to allow ligand binding to tubulin, and subsequently cooled on ice for 10 min. Then, the experiment starts at 4 °C to establish the initial baseline. The assembly process was initiated by a temperature shift to 37 °C and the turbidity produced by tubulin polymerization can be measured by an absorbance increase. After reaching a stable plateau, the temperature was switched back to 4 °C to return to the initial absorption values (to confirm the reversible nature of the monitored process and to determine whether or not the microtubular tubular protein has stabilized). The difference in amplitude between the stable plateau and the initial baseline of the curves was taken as the degree of tubulin polymerization for each experiment. Comparison with control curves under identical conditions but without ligands yielded TPI as a percentage value. All compounds were tested at 10 µM concentration. Compounds that inhibited tubulin polymerization by at least 30% at 10 µM were tested at 20 µM. IC50 values were calculated for compounds that inhibit tubulin polymerization by more than 50% at 20 µM. Compounds were dissolved in DMSO, and the final solvent concentration never exceeded 4% (v/v), which has been reported not to interfere with the assembly process. All the measurements were carried out in at least two independent experiments using microtubular protein from different preparations.

The nature of series [4]: Aqueous solubility, saturation shake-flask method, UV absorbance. The settings on record: pH 7, aqueous buffer, thermodynamic from solid.
Description: UV absorbance at three maximum absorbance wavelengths of selected compounds was measured after 48 h shaking and subsequent microfiltration.
The aqueous solubility of the sulfonamides was determined using an approach based on the saturation shake-flask method. Tested compounds (1–2 mg) were stirred in pH 7.0 phosphate buffer (300 µL) for 48 h at room temperature. The resulting suspension was filtered over a 45 µm filter to discard insoluble residues, and the concentration in the supernatant was measured by UV absorbance. To determine the concentration, a scan between 270 and 400 nm was performed in a Helios-α UV-320 Spectrophotometer (Thermo-Spectronic, Thermo Fischer Scientific, Waltham, MA, USA) for each tested compound. Then, three maximum wavelengths of absorbance per compound were selected from the previous scan and calibration curves were performed at these three wavelengths. Solubility results are given as the average of the three measurements.
Series [5] relates to HT-29 (colon adenocarcinoma). Put plainly: Antiproliferative activity against CA-4-resistant HT-29 with or without verapamil (sensitivity to MDR pumps, XTT). Type of series: cell-based, human. The settings on record: verapamil alone at 10 µM.
Description: Detecting changes in drug potency when inhibiting MDR-mediated efflux reflect that these transporters reduce the intracellular drug concentration. HT-29 has been reported to express moderate levels of MDR1, accounting for a resistant phenotype. A comparison of the antiproliferative IC50 values of each MDS in the presence or absence of verapamil provides an estimate of the susceptibility of each compound to efflux pumps.
as §2
MCF7, HeLa, and HT-29 cell proliferation, when treated with the corresponding compounds, were determined using the XTT (sodium 3’-[1(phenylaminocarbonyl)-3,4-tetrazolium]-bis(4-methoxy-6-nitro)-benzenesulfonic acid hydrate) cell proliferation kit (Roche Molecular Biochemicals, Mannheim, Germany). A freshly prepared mixture of XTT labeling reagent with 0.02% (v/v) PMS (N-methyl-dibenzopyrazine methyl sulfate) electron coupling reagent was added to cells (50 µL/well in 96-well plates, total volume of 160 µL/well). Cells were incubated under standard culture conditions for 4 h (MCF7 and HeLa) or 6 h (HT-29). The absorbance of the formazan product generated was measured at 450 nm using a multi-well plate reader. SKOV-3, OVCAR-3, OVCAR-8, IGROV-1, A-2780 cell proliferation, when treated with the corresponding compound, were determined using MTT (3-(4,5-dimethylthiazol-2-yl)-2,5-diphenyl-2H-tetrazolium bromide) (Sigma-Aldrich, St. Louis, MO, USA). MTT in Phosphate Buffer Saline (PBS) (5 mg/ml) was added to cells (110 µL/well in 24-well plates, total volume of 1110 µL/well). After 1 hour of incubation, the medium was aspirated, and formazan violet crystals were dissolved in dimethyl sulfoxide (DMSO) (500 µL/well). Absorbance was measured at 570 nm in a plate reader (Ultra Evolution, Tecan, Männedorf, Suiza). To determine cell viability, cells in exponential growth phase were seeded (100 µL/well in 96-well plates and 1000 µL/well in 24-well plates) with appropriate cell line concentration (1.5·10^4 cells/mL for MCF7 and HeLa, 3·10^4 cells/mL for HT-29, and 1·10^4 cells/mL for SKOV-3, OVCAR-3, OVCAR-8, IGROV-1, and A-2780) in complete RPMI 1640 or DMEM medium at 37°C and 5% CO2 atmosphere. After 24 h incubation, to allow cells to attach to the plates, all compounds were added at 1 µM concentration and the effect on the proliferation was evaluated 72 h post-treatment. […] Non-linear curves fitting the experimental data were carried out for each compound. Compounds were dissolved in DMSO and the final solvent concentrations never exceeded 0.5% (v/v). The control wells included […] with 0.5% (v/v) DMSO and the positive control. 10 µM verapamil was included as a control for the HT-29 cell line.

pIC50: −log10 of the molar value. ≈ marks a conversion by molar mass, not a printed value.

As a reminder, the pIC50 is the IC50 on a negative log10 scale, so that one unit is a factor of ten. A word on the solubility: it is the concentration that dissolves in the medium under given conditions. The low end stands for a poorly soluble substance, the high end for a readily soluble substance.

Consider `COc1ccc(S(=O)(=O)Nc2cccnc2Nc2ccc(O)cc2)cc1` [ABT-751, reference compound], for which the pIC50 was 6.41 in series [1], 6.74 in series [2] and 5.36 in series [3]. Further, the “TPI % 10 µM” value in series [3] (compound at 10 µM) was 69%. For the same compound, the concentration in solution in series [4] (solubility at 48 h) came to 40 µg/mL (≈ 108 µM).
As to `COc1ccc(CCN(C)CCCC(C#N)(c2ccc(OC)c(OC)c2)C(C)C)cc1OC` (stereo not drawn) [verapamil, reference compound], the “Effect on HT-29 cell proliferation” value in series [5] is reported as “did not affect cell proliferation”.

(Values after PMC7918738, “Microtubule Destabilizing Sulfonamides as an Alternative to Taxane-Based Chemotherapy” (International Journal of Molecular Sciences, 2021).)
